Measurements taken from publication PMC2363230, “Human tumour-associated cell adhesion protein MN/CA IX: identification of M75 epitope and of the region mediating cell adhesion” (British Journal of Cancer, 2000).

What was measured:
[1] = system: adhesion of CGL1 cells to MN/CA IX; experiment: Inhibition of cell adhesion to MN/CA IX dots by oligopeptides added to the media with the cell suspension (Figure 4B); format: cell-based, human; conditions: nonapeptides 7 + 2 aa, C-terminal alanine amide, absorbance at 630 nm of stained attached cells
[2] = biological target: T1, M75 epitope of immobilized GST-MN (Homo sapiens, UniProt Q16790); experiment: Competition ELISA, peptides binding to the epitope of immobilized GST-MN (Figure 4A); conditions: nonapeptides 7 + 2 aa, C-terminal alanine amide
T1 construct: made in house; host or cells: bacteria

mAb M75 = experiment: Competition ELISA with mAb M75 (antigen competing for M75, Figure 3); format: binding; conditions: for competition in ELISA with M75 at 100 g ml-1: peptide at 100 g ml-1 (so in the source), C-terminal amide; for 50% inhibition concentration in competition ELISA with M75: GST-MN 10 ng ml-1 adsorbed, mAb M75 ascites fluid final dilution 10-6, antibody + antigen mixtures adsorbed 1.5 h, peroxidase/OPD read-out; for serological activity in competition ELISA with M75 (in words): GST-MN adsorbed, mAb M75 ascites 10-6

1: AKKMKRRKA, selected from phage display library on peptide F, eluted with M75 [compound 1]
activity in cell adhesion inhibition of phage display-selected peptides (in words) [1]: less active
activity in competition ELISA of phage display-selected peptides (in words) [2]: less active

2: AITFNAQYA, selected from phage display library on peptide F, eluted with M75 [compound 2]
activity in cell adhesion inhibition of phage display-selected peptides (in words) [1]: highest activity
activity in competition ELISA of phage display-selected peptides (in words) [2]: highest activity

3: ASASAPVSA, selected from phage display library on peptide F, eluted with M75 [compound 3]
activity in cell adhesion inhibition of phage display-selected peptides (in words) [1]: marginally posi- tive only in ELISA
activity in competition ELISA of phage display-selected peptides (in words) [2]: marginally posi- tive

ADLPGEEA [6 + 2 aa permutation]
competition in ELISA with M75 at 100 g ml-1 (mAb M75): negative

ADLPGEEDA [oligopeptide 7 + 2 aa]
competition in ELISA with M75 at 100 g ml-1 (mAb M75): negative

AEDLPGEA [6 + 2 aa permutation]
competition in ELISA with M75 at 100 g ml-1 (mAb M75): negative

AEDLPGEEA [oligopeptide 7 + 2 aa]
competition in ELISA with M75 at 100 g ml-1 (mAb M75): negative

AEEDLPGA [6 + 2 aa permutation]
competition in ELISA with M75 at 100 g ml-1 (mAb M75): negative

AEEDLPGEA [oligopeptide 7 + 2 aa]
competition in ELISA with M75 at 100 g ml-1 (mAb M75): negative

AGEEDLPA [6 + 2 aa permutation]
competition in ELISA with M75 at 100 g ml-1 (mAb M75): negative

ALPGEEDA [6 + 2 aa permutation]
competition in ELISA with M75 at 100 g ml-1 (mAb M75): negative

ALPGEEDLA [oligopeptide 7 + 2 aa]
competition in ELISA with M75 at 100 g ml-1 (mAb M75): negative

APGEEDLA [6 + 2 aa permutation]
competition in ELISA with M75 at 100 g ml-1 (mAb M75): negative

D: GGSSGEDDPLGEEDLPSEEDSPC (aa 51-72 of the PG region)
50% inhibition concentration in competition ELISA with M75 (mAb M75): 1 ng/mL

EVKPKSEEEGSLKLE [Peptide G]
serological activity in competition ELISA with M75 (in words) (mAb M75): inactive

F: EDPPGEEDLPGEEDLPGEEDLPEVC (aa 75-98 of the PG region)
50% inhibition concentration in competition ELISA with M75 (mAb M75): 1 ng/mL

GEEDLPSEEDSPREEDPPGEEDLPGEC [Peptide E]
fold less active than peptides D and F in competition ELISA (mAb M75; compared with peptides D and F (50% inhibition at 1 ng ml-1)): 1000 x

N: oligopeptide 7 + 2 aa APGEEDLPA
serological activity in competition ELISA with M75 (in words) (mAb M75): minimum serologically active sequence
